The structures appear in SMILES notation.

The source of these data is US20170143712A1, “Methods of Treating Cancers, Immune and Autoimmune Diseases, and Inflammatory Diseases Based on BTK Occupancy and BTK Resynthesis Rate” (Acerta Pharma B.V., priority 2014, published 2017).

Assay [1] concerns established type II collagen-induced arthritis (CIA) in DBA/1 mice. The experiment in a line: 14-day mouse established type II collagen-induced arthritis (CIA), PO QD (Example 10). Type of assay: in vivo. The conditions noted are these: for arthritis scores measured daily vs vehicle controls / disease-induced body weight loss (percent change from baseline) vs vehicle controls: p<0.05 on the days printed; for AUC (All Paws) - Corrected for Initial Score / Change in Body Weight (g) / Histopathology Summed Score Knees / Histopathology Summed Score Paws / Histopathology Summed Score Six-Joints / Paw Score AUC (All Paws): mean(SE); for spleen weights compared to vehicle controls: all dose groups PO QD. How it is done: Prior to dosing, the candidate anti-inflammatory agents were reconstituted either by vortexing or stirring. The candidate anti-inflammatory agents were administered to the DBA/1 mice daily (QD) by the oral (PO) route.
Immunization with heterologous type II collagen (CII) induces arthritis in mice of the DBA/1 strain, which is genetically susceptible to this disease. To develop an experimental model of autoimmunity more adequate for the study of human rheumatoid arthritis (RA), male DBA/1 mice were injected intradermally (ID) with bovine type II collagen to induce arthritis as reported by Trentham et al (Trentham D E, Townes A S, Kang A H Autoimmunity to type II collagen: an experimental model of arthritis. J. Exper. Med. 1977, 146:857-868) and Bendele A (Bendele A, Animal models of rheumatoid arthritis. J. Musculoskelet. Neuronal Interact. 2001, 1(4):377-85). Male DBA/1 mice (n=114) that were 6-7 weeks old and weighed approximately 18-27 grams (mean 22 g) at enrollment (arthritis day 1) were obtained from Taconic Farms, Inc. The male DBA/1 mice were at least 6 weeks old at time of first immunization and were housed 3-5/cage in shoe-box polycarbonate cages with wire tops, wood chip bedding, and suspended food and water bottles. These animals were identified by a distinct number of ink marks at the base of the tail delineating animal number. After enrollment, all cages were labeled with protocol number, group number, and animal numbers.
The male DBA/1 (n=10/group for arthritis) were anaesthetized with Isoflurane, shaved at the base of the tail, and injected intradermally with 150 μL of Freund's Complete Adjuvant (Difco, Detroit, Mich.) containing bovine type II collagen (BBP, batch #7) (1 mg/ml) at the base of the tail on day 0 and again on day 21. […] Randomization was done after swelling was obviously established in at least one paw (score of 1) and attempts were made to ensure approximately equal mean scores of 0.5-1 across groups at the time of enrollment. […] The male DBA/1 mice were terminated on arthritis day 14 (3 hours post-dose).
Efficacy evaluation of the administered anti-inflammatory agents was based on animal body weights, clinical arthritis scores, arthritis scores expressed as area under the curve (AUC), and histopathology on fore paws, hind paws, and knees. Histopathology results were expressed as 4 paws, knees only, or 6 joints (knees included). Day 13 was used as the endpoint for analysis of body weight change since the male DBA/1 mice were fasted overnight prior to necropsy on day 14.

The subject of assay [2] is BCR signaling through BTK. Briefly: Anti-IgM induced CD86 and CD69 on splenocyte B cells of CIA mice. Type of assay: in vivo, mouse. As to conditions: splenocytes 3 hr after last dosing on day 14. How it is done: FIG. 45 illustrates changes in a functional measure of BCR signalling through the CD86 marker. Mouse splenocytes were isolated from spleens from mice that were part of the mouse CIA study semi-therapeutic protocol, 3 hr after the last dosing on day 14 of the treatment and cryopreserved. After thawing, inhibition of anti-IgM-induced PD markers CD86 and CD69 on mouse splenocyte B cells were measured. Error bars represent the standard deviation for the 3 sets of splenocytes analyzed.
FIG. 46 illustrates changes in a functional measure of BCR signalling through the CD69 marker. Mouse splenocytes were isolated from spleens from mice that were part of the mouse CIA study semi-therapeutic protocol, 3 hr after the last dosing on day 14 of the treatment and cryopreserved. After thawing, inhibition of anti-IgM-induced PD markers CD86 and CD69 on mouse splenocyte B cells were measured. Error bars represent the standard deviation for the 3 sets of splenocytes analyzed.
Inhibition of the BCR signaling through BTK was evaluated by ex vivo stimulation of splenocytes using IgM and evaluation of CD86 and CD69 as functional responses of BCR stimulation.

The mark [3] stands for this setting: 5 mg/kg PO QD, prophylactic paws.
[4] abbreviates: 5 mg/kg PO QD, prophylactic paws only.
Where [5] appears, read: 5 mg/kg PO QD, therapeutic paws only.

Consider `CC#CC(=O)N1CCOC[C@H]1c1nc(-c2ccc(C(=O)Nc3ccccn3)cc2)c2c(N)nccn12` [(R)-4-(8-amino-3-(4-(but-2-ynoyl)morpholin-3-yl)imidazo[1,5-a]pyrazin-1-yl)-N-(pyridin-2-yl)benzamide], for which, in assay [1] (5 mg/kg PO QD), the “six-joint histopathology, reduction of summed scores vs vehicle controls” value (shortened to “six-joint histopathology, reduction”) was found to be 75%; the “AUC (All Paws) - Corrected for Initial Score” value (shortened to “AUC (All Paws) - Corrected”) was “*3.43(2.22)”; the “Change in Body Weight (g)” value is on record as −0.04(0.92) g; the “Histopathology Summed Score Knees” value is “*2.65(0.79)”. Also, in assay [1] (5 mg/kg PO QD), the “Histopathology Summed Score Paws” value is 4.24(1.07), the “Histopathology Summed Score Six-Joints” value is reported as “*3.71(0.87)”, the “Paw Score AUC (All Paws)” value was “*10.58(2.95)” and the “disease-induced body weight loss (percent change from baseline) vs vehicle controls” value is recorded as “significantly inhibited toward normal”. Moreover, in assay [1] (5 mg/kg PO QD, all paws), the “Clinical arthritis scores AUC, reduction vs vehicle controls” value came out at 74%; the “Clinical arthritis scores AUC, reduction when corrected for initial enrollment score” value is reported as 90%; the “arthritis scores measured daily vs vehicle controls” value is reported as “significantly reduced toward normal”. The “daily arthritis scores vs vehicle controls” value in assay [1] (setting [3]) is “significantly reduced toward normal”. Moreover, in assay [1] (setting [4]), the “Clinical arthritis scores AUC, reduction vs vehicle controls” value was determined as 95%. Also, in assay [1], the “spleen weights compared to vehicle controls” value was “not significantly affected”. Also, the “BCR-mediated signaling (anti-IgM induced CD86 and CD69)” value in assay [2] was “dose-responsive decreases in BCR-mediated signaling”.
As for `CC#CC(=O)N1CC[C@@H](n2c(=O)n(-c3ccc(Oc4ccccc4)cc3)c3c(N)ncnc32)C1` [Formula (XXI), 6-amino-9-[(3R)-1-(2-butynoyl)-3-pyrrolidinyl]-7-(4-phenoxyphenyl)-7,9-dihydro-8H-purin-8-one], in assay [1] (1 mg/kg PO QD), the “six-joint histopathology, reduction” value came to 73%; the “total body weight loss from enrollment to study termination” value is reported as “significantly inhibited”; the “AUC (All Paws) - Corrected” value is reported as 7.28(3.26); the “Change in Body Weight (g)” value is recorded as “*0.33(0.82) g”. For the same compound, in assay [1] (1 mg/kg PO QD), the “Histopathology Summed Score Knees” value was “*3.45(1.22)”, the “Histopathology Summed Score Paws” value is “*4.14(1.27)”, the “Histopathology Summed Score Six-Joints” value is reported as “*3.91(1.13)” and the “Paw Score AUC (All Paws)” value is reported as “*14.43(4.11)”. In addition, in assay [1] (1 mg/kg PO QD), the “disease-induced body weight loss (percent change from baseline) vs vehicle controls” value is “significantly inhibited toward normal”. Further, in assay [1] (1 mg/kg PO QD, all paws), the “Clinical arthritis scores AUC, reduction vs vehicle controls” value was determined as 65%; the “Clinical arthritis scores AUC, reduction when corrected for initial enrollment score” value is 79%; the “arthritis scores measured daily vs vehicle controls” value was “significantly reduced toward normal”. In assay [1] (1 mg/kg PO QD, prophylactic paws), the “daily arthritis scores vs vehicle controls” value is “significantly reduced toward normal”. Further, the “Clinical arthritis scores AUC, reduction vs vehicle controls” value in assay [1] (1 mg/kg PO QD, prophylactic paws only) was 99%. Further, in assay [1] (5 mg/kg PO QD), the “six-joint histopathology, reduction” value turned out to be 85%; the “total body weight loss from enrollment to study termination” value is on record as “significantly inhibited”; the “AUC (All Paws) - Corrected” value is given as “*−1.33(1.48)”; the “Change in Body Weight (g)” value is “*0.89(0.71) g”. For the same compound, in assay [1] (5 mg/kg PO QD), the “Histopathology Summed Score Knees” value is “*3.48(1.17)”, the “Histopathology Summed Score Paws” value was “*1.46(0.47)”, the “Histopathology Summed Score Six-Joints” value is recorded as “*2.13(0.66)” and the “Paw Score AUC (All Paws)” value was “*5.83(1.53)”. Further, the “disease-induced body weight loss (percent change from baseline) vs vehicle controls” value in assay [1] (5 mg/kg PO QD) is listed as “significantly inhibited toward normal”. Besides, in assay [1] (5 mg/kg PO QD, all paws), the “Clinical arthritis scores AUC, reduction vs vehicle controls” value is given as 86%; the “Clinical arthritis scores AUC, reduction when corrected for initial enrollment score” value is reported as 104%; the “arthritis scores measured daily vs vehicle controls” value is listed as “significantly reduced toward normal”. Moreover, in assay [1] (setting [3]), the “daily arthritis scores vs vehicle controls” value was “significantly reduced toward normal”. Moreover, the “Clinical arthritis scores AUC, reduction vs vehicle controls” value in assay [1] (setting [4]) is 100%. The “daily arthritis scores vs vehicle controls” value in assay [1] (5 mg/kg PO QD, therapeutic paws) is on record as “significantly reduced toward normal”. In assay [1] (setting [5]), the “Clinical arthritis scores AUC, reduction vs vehicle controls” value came to 66% and the “Clinical arthritis scores AUC, reduction when corrected for initial enrollment score” value is 113%. Also, the “spleen weights compared to vehicle controls” value in assay [1] is recorded as “not significantly affected”. Moreover, in assay [2], the “BCR-mediated signaling (anti-IgM induced CD86 and CD69)” value was “dose-responsive decreases in BCR-mediated signaling”.
